In article PMC9573696, “Experimental Examination of Solubility and Lipophilicity as Pharmaceutically Relevant Points of Novel Bioactive Hybrid Compounds” (Molecules, 2022):
Values after ≈ are worked out from the molar mass of the structure shown.

How the values were obtained:
[1] = Equilibrium (thermodynamic) solubility, shake-flask method; assay type: physicochemical; details: for Solubility S × 10^3 / Solubility x × 10^4 / Solubility x × 10^5 / Solubility S × 10^4 / Solubility x × 10^6: amorphous state; for Solubility S × 10^4 / Solubility x × 10^6: Buffer pH 7.4
Text: The experimental solubility values of hybrids in the selected solvents within the temperature range of 293.15–313.15 K expressed in molarity are summarized in Table 2. The comparative analysis of the reference values of the solubility of compounds I–III at the standard temperature of 298.15 K is given as a histogram in Figure 3.
Shake-flask method as “gold standard” was used for determination thermodynamic solubility synthesized compounds in buffer solutions (pH 2.0 and 7.4) and 1-octanol in the temperature range of 293.15–313.15 K with a step of 5 degrees at atmospheric pressure. Excessive amounts of compound were added to glass vials c 12 mL of selected solvent. The heterogeneous system is closed with a lid and vigorously stirred at the selected temperature in an air thermostat with a stirring device until the solubility equilibrium has been reached. The time required for establishing a constant value of the solution concentration was determined from the solubility kinetic dependences and averaged 2 days. The equilibrated solutions were first survived to aim sedimentation of solid phase during 10 h, then centrifuged at 20,000 rpm for 30 min at specific temperatures, and then quickly filtered using a syringe equipped with a hydrophilic filter Millex-GV 0.22 µm (Ireland). Concentration of saturated solution was measured using spectrophotometer Cary-50 (Varian, USA) with an accuracy of 2–4%. The absorbances of compounds studied were measured at wavelengths 332 and 334 nm in buffer solutions and 1-octanol, respectively. If necessary, an aliquot was diluted with an appropriate solvent. The final pH of the saturated buffers was monitored. The solubility of compounds in each solvent was determined by repeating the procedure three times.
Mole fraction concentration was calculated from solubility value S expressed in mol∙L^−1 using Equation (10):(10) x=M2S/S(M2−M1)+1000ρ, where M1 and M2 are the molar masses of solute and solvent, respectively, and ρ (g∙cm^−3) is the density of the pure solvents. The mole fraction solubilities for buffer solutions were calculated taking into account the buffer compositions. The used values of densities are given in Table S6 in Supplementary Material.

[2] = system: C. parapsilosis ATCC 22019; test: In vitro antifungal activity, microbroth dilution (MIC); assay type: cell-based; details: C. parapsilosis ATCC 22019
Method: (§1) The in vitro antifungal screening results of synthesized compounds was evaluated against three fungal strains: C. parapsilosis ATCC 22019, C. utilis 84, and C. glabrata 61L are summarized in Table 1.
(§2) The in vitro antifungal activity of the target compounds was measured by means of the minimal inhibitory concentrations (MIC) with fluconazole as the control drug. Procedure was carried out by the microbroth dilution method in 96-well plates according to the recommendations of the Clinical and Laboratory Standards Institute. The detailed information was reported previously. The investigated pathogenic species included C. parapsilosis ATCC 22019, C. utilis 84 and C. glabrata 61. The sensitivity was evaluated visually, after the incubation at 35 °C for 24 h and the value was compared with the growth density in the reference culture without the sample. Each test was conducted in triplicate.

[3] = system: C. utilis 84; test: as above; assay type: cell-based; details: C. utilis 84
Method: as §1, §2

[4] = system: C. glabrata 61L; test: as above; assay type: cell-based; details: Nakaseomyces glabratus; C. glabrata 61L; 35 °C, 24 h; read-out: MIC
Method: as §1, §2

[5] = Apparent thermodynamic functions of dissolution (van't Hoff); assay type: physicochemical; details: Thm = 302.98 K
Text: The dissolution of the new hybrids was characterized based on apparent thermodynamic parameters obtained from temperature dependences of solubility of the studied compounds in the selected solvents (Figure 6). […] The van’t Hoff enthalpy of dissolution can be expressed as the inclination of a tangent to a solubility curve plotted as lnx vs. (1/T − 1/Thm) by Equation (6): (6) ΔHsolo=−R(∂lnx/∂(1/T−1/Thm))=−R⋅slope where R = 8.314 J⋅K^−1·mol^−1 is the universal gas constant. Thm = 302.98 K denotes the mean harmonic temperature, which was calculated by Equation (7):(7) Thm=n/∑i=1n1/Ti where n represented the number of experimental temperatures. The apparent standard Gibbs energy was evaluated by Equation (8):(8) ΔGsolo=−RThm×intersept
The apparent standard solution entropies were obtained from the well-known relationship:(9) ΔSsolo=ΔHsolo−ΔGsolo/Thm
The calculated apparent thermodynamic solubility functions of dissolution (Gibbs energy, enthalpy, and entropy) at standard temperature 298.15 K for hybrid compounds were collected in Table 4.

[6] = Thermodynamic functions of transfer 1-octanol/buffer pH 7.4; assay type: physicochemical; details: 298.15 K
Method: The temperature variation of the partition coefficient provides enthalpic and entropic contributions to the free energy of transfer. The thermodynamic transfer functions for hybrids I–III in the 1-octanol/buffer pH 7.4 system were calculated by Equations (12)–(16) and are summarized in Table 6. The standard Gibbs energy values for all the compounds are negative. Therefore, the transfer from the aqueous medium to the organic phase within the studied temperature range is thermodynamically favourable and spontaneous. The standard transfer enthalpies of all the studied compounds are positive, which means the process is endothermic. Energy is consumed during the transfer to overcome the hydrophobic effects in water (destruction of the molecule solvate shell structure), destruction of the solvent–solute interactions in the aqueous medium and creation of a cavity in the organic phase where the solute molecules can enter.
The standard change in Gibbs free energy of transfer (∆trG^o) from the buffer to the organic phase was calculated by Equation (14):∆trG^o = −RTlnP*o/b(14)
The standard change entropy of transfer (∆trS^o) is determined as follows:∆trS^o = (∆trH^o − ∆trG^o)/T(15)

For `O=c1c2sc(=S)n(-c3ccc(F)cc3)c2ncn1CCCN1CCN(CC(O)(Cn2cncn2)c2ccc(F)cc2F)CC1` (stereo not shown) [II, 6-[3-[4-[2-(2,4-difluorophenyl)-2-hydroxy-3-(1H-1,2,4-triazol-1-yl)propyl]-1-piperazinyl]propyl]-2,3-dihydro-3-(4-fluorophenyl)-2-thioxo-thiazolo[4,5-d]pyrimidin-7(6H)-one], the “Solubility S × 10^3” value ([1]; 1-Octanol, 293.15 K) was 5.3994 mol∙L^−1 (printed as S × 10^3), the “Solubility x × 10^4” value ([1]; 1-Octanol, 293.15 K) was 8.5358 mol. frac. (printed as x × 10^ and the “Solubility S × 10^3” value ([1]; 1-Octanol, 298.15 K) was 5.6703 mol∙L^−1 (printed as S × 10^3). The “Solubility x × 10^4” value ([1]; 1-Octanol, 298.15 K) was 9.0027 mol. frac. (printed as x × 10^, the “Solubility S × 10^3” value ([1]; 1-Octanol, 303.15 K) was 5.8834 mol∙L^−1 (printed as S × 10^3) and the “Solubility x × 10^4” value ([1]; 1-Octanol, 303.15 K) was 9.3813 mol. frac. (printed as x × 10^. The “Solubility S × 10^3” value ([1]; 1-Octanol, 308.15 K) was 6.1187 mol∙L^−1 (printed as S × 10^3), the “Solubility x × 10^4” value ([1]; 1-Octanol, 308.15 K) was 9.8001 mol. frac. (printed as x × 10^ and the “Solubility S × 10^3” value ([1]; 1-Octanol, 313.15 K) was 6.3807 mol∙L^−1 (printed as S × 10^3). The “Solubility x × 10^4” value ([1]; 1-Octanol, 313.15 K) was 10.2644 mol. frac. (printed as x × 10^, the solubility at 2 days ([1]; 25 °C, organic solvent or mixture, thermodynamic from solid, 1-octanol, text values match 298.15 K, read-out: Solubility S in the alcohol (1-octanol)) was 5.67 mM (≈ 3640 µg/mL) and the “Solubility S × 10^3” value ([1]; Buffer pH 2.0, 293.15 K) was 1.0755 mol∙L^−1 (printed as S × 10^3). For the same compound, the “Solubility x × 10^5” value ([1]; Buffer pH 2.0, 293.15 K) was 1.9402 mol. frac. (printed as x × 10^, the “Solubility S × 10^3” value ([1]; Buffer pH 2.0, 298.15 K) was 1.2330 mol∙L^−1 (printed as S × 10^3) and the “Solubility x × 10^5” value ([1]; Buffer pH 2.0, 298.15 K) was 2.2272 mol. frac. (printed as x × 10^. The “Solubility S × 10^3” value ([1]; Buffer pH 2.0, 303.15 K) was 1.4273 mol∙L^−1 (printed as S × 10^3), the “Solubility x × 10^5” value ([1]; Buffer pH 2.0, 303.15 K) was 2.5822 mol. frac. (printed as x × 10^ and the “Solubility S × 10^3” value ([1]; Buffer pH 2.0, 308.15 K) was 1.6250 mol∙L^−1 (printed as S × 10^3). The “Solubility x × 10^5” value ([1]; Buffer pH 2.0, 308.15 K) was 2.9451 mol. frac. (printed as x × 10^, the “Solubility S × 10^3” value ([1]; Buffer pH 2.0, 313.15 K) was 1.8394 mol∙L^−1 (printed as S × 10^3) and the “Solubility x × 10^5” value ([1]; Buffer pH 2.0, 313.15 K) was 3.3404 mol. frac. (printed as x × 10^. For the same compound, the “Solubility S × 10^4” value ([1]; 293.15 K) was 3.0126 mol∙L^−1 (printed as S × 10^4), the “Solubility x × 10^6” value ([1]; 293.15 K) was 5.4794 mol. frac. (printed as x × 10^ and the “Solubility S × 10^4” value ([1]; 298.15 K) was 3.1917 mol∙L^−1 (printed as S × 10^4). For the same compound, the “Solubility x × 10^6” value ([1]; 298.15 K) was 5.8122 mol. frac. (printed as x × 10^, the “Solubility S × 10^4” value ([1]; 303.15 K) was 3.3788 mol∙L^−1 (printed as S × 10^4) and the “Solubility x × 10^6” value ([1]; 303.15 K) was 6.1623 mol. frac. (printed as x × 10^. The “Solubility S × 10^4” value ([1]; 308.15 K) was 3.5539 mol∙L^−1 (printed as S × 10^4), the “Solubility x × 10^6” value ([1]; 308.15 K) was 6.4929 mol. frac. (printed as x × 10^ and the “Solubility S × 10^4” value ([1]; 313.15 K) was 3.7469 mol∙L^−1 (printed as S × 10^4). For the same compound, the “Solubility x × 10^6” value ([1]; 313.15 K) was 6.8581 mol. frac. (printed as x × 10^, the advantage over fluconazole ([2]; MIC ratio) was 20 fold and the MIC ([2]; Lodderomyces parapsilosis, ATCC22019, 35 °C, 24 h, read-out: MIC) was 0.1 µg/mL (≈ 0.156 µM). For the same compound, the “activity relative to fluconazole” value [3] was 2 times, the MIC ([3]; Williopsis jadinii, 35 °C, 24 h, read-out: MIC) was 1 µg/mL (≈ 1.56 µM) and the MIC [4] was 4 µg/mL (≈ 6.22 µM). It also gave a TΔSsolo ([5]; 1-Octanol) of -10.4 kJ/mol, a ΔGsolo ([5]; 1-Octanol) of 17.4 ± 0.3 kJ/mol and a ΔHsolo ([5]; 1-Octanol) of 6.9 ± 0.1 kJ/mol. It also gave a ΔSsolo ([5]; 1-Octanol) of −35.1 ± 1.8 J·mol^−1·K^−1, a TΔSsolo ([5]; Buffer pH 2.0) of -5.7 kJ/mol and a ΔGsolo ([5]; Buffer pH 2.0) of 26.6 ± 0.5 kJ/mol. It also gave a ΔHsolo ([5]; Buffer pH 2.0) of 20.9 ± 0.2 kJ/mol, a ΔSsolo ([5]; Buffer pH 2.0) of −19.1 ± 1.1 J·mol^−1·K^−1 and a TΔSsolo ([5]; Buffer pH 7.4) of -21.3 kJ/mol. It also gave a ΔGsolo ([5]; Buffer pH 7.4) of 29.9 ± 0.6 kJ/mol, a ΔHsolo ([5]; Buffer pH 7.4) of 8.5 ± 0.1 kJ/mol and a ΔSsolo ([5]; Buffer pH 7.4) of −71.4 ± 4.2 J·mol^−1·K^−1. For the same compound, the “T∆trS^o” value [6] was 31.9 ± 0.8 kJ/mol, the “∆trG^o” value [6] was -19.1 ± 0.3 kJ/mol and the “∆trH^o” value [6] was 12.8 ± 0.2 kJ/mol. For the same compound, the “∆trS^o” value [6] was 106.9 ± 2.9 J·mol^−1·K^−1.
